Columns and labels:
[1] = Oral bioavailability in ICR mouse at 20 mg/kg measured up to 48 hrs by LC-MS/MS analysis; type: ADME, organism-based; settings: in vivo
[2] = Microsomal stability in rat liver microsomes assessed as compound remaining at 100 ug/ml in presence of NADPH measured at 1.5 hrs by LC/MS analysis; type: ADME, Microsome; settings: read-out: Stability
HCT-116 = test: cells; settings: Homo sapiens, HCT-116, 72 h
[3] = Toxicity in BALB/c nude mouse xenografted with human MM1S cells assessed as reduction in body weight at 10 mg/kg, po administered once daily for 22 days relative to control; type: organism-based; set-up: scale not given: the % may be the effect or the level left; settings: in vivo, 528 h
[4] = biological target: Ribosomal protein S6 kinase beta-1 (Homo sapiens, UniProt P23443); test: Inhibition of human P70S6K by mobility shift assay
Ribosomal protein S6 kinase beta-1, sequence (P23443 whole entry): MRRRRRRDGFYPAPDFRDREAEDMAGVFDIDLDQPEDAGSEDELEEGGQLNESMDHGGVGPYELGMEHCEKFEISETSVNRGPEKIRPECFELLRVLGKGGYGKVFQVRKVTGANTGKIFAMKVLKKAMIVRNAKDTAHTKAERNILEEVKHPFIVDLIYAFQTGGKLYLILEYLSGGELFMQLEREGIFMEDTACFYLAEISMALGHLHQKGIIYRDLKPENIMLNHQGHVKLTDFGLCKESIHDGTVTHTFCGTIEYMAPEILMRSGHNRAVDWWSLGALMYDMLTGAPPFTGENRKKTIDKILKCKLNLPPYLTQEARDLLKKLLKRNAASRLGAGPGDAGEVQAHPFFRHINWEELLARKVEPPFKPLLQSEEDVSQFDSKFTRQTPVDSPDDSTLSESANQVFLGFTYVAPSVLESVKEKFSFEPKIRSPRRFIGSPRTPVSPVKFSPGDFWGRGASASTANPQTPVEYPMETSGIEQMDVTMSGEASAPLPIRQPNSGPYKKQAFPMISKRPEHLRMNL

[5] = Microsomal stability in monkey liver microsomes assessed as compound remaining at 100 ug/ml in presence of NADPH measured at 1.5 hrs by LC/MS analysis; type: ADME, Macaca mulatta, Microsome; settings: rhesus monkey, read-out: Stability
OVCAR-8 = test: Antiproliferative activity against human OVCAR8 cells; type: functional, cell-based
[6] = biological target: Ribosomal protein S6 kinase alpha-1 (Homo sapiens, UniProt Q15418); test: Inhibition of RSK1 (unknown origin) by mobility shift assay
Ribosomal protein S6 kinase alpha-1, sequence (Q15418 whole entry): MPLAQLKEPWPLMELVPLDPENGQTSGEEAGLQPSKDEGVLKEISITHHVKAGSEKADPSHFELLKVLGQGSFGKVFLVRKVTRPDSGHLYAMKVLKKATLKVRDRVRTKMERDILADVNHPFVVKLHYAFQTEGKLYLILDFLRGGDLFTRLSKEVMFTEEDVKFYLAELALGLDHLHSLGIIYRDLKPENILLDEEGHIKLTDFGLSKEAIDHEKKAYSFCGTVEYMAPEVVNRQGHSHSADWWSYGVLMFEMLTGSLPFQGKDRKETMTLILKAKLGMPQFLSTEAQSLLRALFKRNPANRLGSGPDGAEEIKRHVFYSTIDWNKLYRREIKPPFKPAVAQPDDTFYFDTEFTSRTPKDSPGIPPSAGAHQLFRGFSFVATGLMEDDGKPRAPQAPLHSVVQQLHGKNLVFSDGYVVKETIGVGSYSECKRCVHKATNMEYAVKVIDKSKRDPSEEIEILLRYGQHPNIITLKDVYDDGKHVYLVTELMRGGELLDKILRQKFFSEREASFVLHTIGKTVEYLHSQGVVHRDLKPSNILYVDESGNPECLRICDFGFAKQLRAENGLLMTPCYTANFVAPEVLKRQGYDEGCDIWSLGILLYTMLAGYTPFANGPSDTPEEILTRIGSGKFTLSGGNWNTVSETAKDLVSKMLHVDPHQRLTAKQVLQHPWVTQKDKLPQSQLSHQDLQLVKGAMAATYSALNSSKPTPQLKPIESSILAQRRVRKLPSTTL

Protein kinase C (PKC) = test: Inhibition of PKC (unknown origin); type: protein assay, Homo sapiens
hERG (KCNH2) = hERG (KCNH2) (Homo sapiens, UniProt Q12809); test: Inhibition of ERG in human HEK293 cells at 3 uM at -80 mV holding potential by whole-cell patch clamp assay relative to control; type: cell-based; settings: HEK293 cells expressing ERG
hERG (KCNH2), sequence (Q12809 whole entry): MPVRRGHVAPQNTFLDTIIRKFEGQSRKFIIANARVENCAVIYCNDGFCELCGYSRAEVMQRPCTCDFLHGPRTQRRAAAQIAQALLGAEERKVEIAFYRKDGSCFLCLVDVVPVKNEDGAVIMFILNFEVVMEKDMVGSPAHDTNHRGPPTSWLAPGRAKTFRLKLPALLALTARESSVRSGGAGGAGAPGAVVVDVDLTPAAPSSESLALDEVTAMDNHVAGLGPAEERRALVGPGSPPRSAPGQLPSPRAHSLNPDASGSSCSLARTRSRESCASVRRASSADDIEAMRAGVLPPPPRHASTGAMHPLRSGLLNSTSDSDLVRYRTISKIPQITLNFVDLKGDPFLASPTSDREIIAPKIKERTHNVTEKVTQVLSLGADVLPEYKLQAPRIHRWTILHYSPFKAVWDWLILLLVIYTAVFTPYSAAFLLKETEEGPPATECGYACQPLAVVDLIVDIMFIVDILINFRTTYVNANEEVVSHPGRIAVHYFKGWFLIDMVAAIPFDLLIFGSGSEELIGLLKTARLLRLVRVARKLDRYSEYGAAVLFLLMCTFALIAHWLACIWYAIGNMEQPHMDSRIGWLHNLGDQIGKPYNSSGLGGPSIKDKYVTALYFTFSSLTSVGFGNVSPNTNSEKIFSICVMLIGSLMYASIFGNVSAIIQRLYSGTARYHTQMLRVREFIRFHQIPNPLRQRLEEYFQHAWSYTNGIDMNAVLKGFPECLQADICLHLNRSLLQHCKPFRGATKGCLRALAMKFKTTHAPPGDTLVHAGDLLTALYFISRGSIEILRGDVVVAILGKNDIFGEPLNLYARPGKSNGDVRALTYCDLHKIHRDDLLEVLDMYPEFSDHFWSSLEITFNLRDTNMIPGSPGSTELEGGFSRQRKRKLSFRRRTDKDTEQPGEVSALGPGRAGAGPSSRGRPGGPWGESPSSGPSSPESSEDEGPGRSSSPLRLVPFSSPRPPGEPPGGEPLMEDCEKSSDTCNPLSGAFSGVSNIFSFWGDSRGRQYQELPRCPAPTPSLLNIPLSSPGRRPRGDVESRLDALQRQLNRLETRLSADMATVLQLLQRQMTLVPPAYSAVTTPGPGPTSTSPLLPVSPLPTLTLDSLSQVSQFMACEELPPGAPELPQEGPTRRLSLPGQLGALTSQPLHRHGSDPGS

[7] = biological target: RAC-alpha serine/threonine-protein kinase (Homo sapiens, UniProt P31749)
RAC-alpha serine/threonine-protein kinase, sequence (P31749 whole entry): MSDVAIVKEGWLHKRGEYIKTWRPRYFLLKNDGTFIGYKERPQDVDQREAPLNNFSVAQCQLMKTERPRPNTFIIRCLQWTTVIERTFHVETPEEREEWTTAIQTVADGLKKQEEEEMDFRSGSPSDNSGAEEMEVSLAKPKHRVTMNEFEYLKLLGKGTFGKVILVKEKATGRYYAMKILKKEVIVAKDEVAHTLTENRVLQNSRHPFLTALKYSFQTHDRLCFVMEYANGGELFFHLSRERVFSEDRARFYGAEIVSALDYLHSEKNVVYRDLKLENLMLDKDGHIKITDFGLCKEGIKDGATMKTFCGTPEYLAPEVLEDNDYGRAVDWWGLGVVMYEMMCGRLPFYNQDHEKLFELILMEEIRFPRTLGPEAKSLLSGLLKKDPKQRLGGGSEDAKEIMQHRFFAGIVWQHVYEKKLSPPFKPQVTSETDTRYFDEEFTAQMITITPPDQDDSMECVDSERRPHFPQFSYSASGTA
Description: Inhibition of human Akt1 expressed in Escherichia coli using STK Substrate 2-biotin as substrate incubated for 1 hr by HTRF assay

[8] = Toxicity in po dosed BALB/c nude mouse xenografted with human MM1S cells assessed as maximum tolerated dose administered once daily for 22 days; type: organism-based; settings: in vivo
[9] = Toxicity in ICR mouse assessed as reduction in mouse survival at 20 to 40 mg/kg, ig administered once daily for 7 days; type: organism-based; settings: in vivo, po, 168 h
[10] = Cmax in ICR mouse at 20 mg/kg, po measured up to 48 hrs by LC-MS/MS analysis; type: ADME, organism-based; set-up: dose 20 mg/kg, route oral; settings: in vivo
[11] = biological target: RAC-gamma serine/threonine-protein kinase (Homo sapiens, UniProt Q9Y243); test: Inhibition of Akt3 (unknown origin) by mobile shift assay
RAC-gamma serine/threonine-protein kinase, sequence (Q9Y243 whole entry): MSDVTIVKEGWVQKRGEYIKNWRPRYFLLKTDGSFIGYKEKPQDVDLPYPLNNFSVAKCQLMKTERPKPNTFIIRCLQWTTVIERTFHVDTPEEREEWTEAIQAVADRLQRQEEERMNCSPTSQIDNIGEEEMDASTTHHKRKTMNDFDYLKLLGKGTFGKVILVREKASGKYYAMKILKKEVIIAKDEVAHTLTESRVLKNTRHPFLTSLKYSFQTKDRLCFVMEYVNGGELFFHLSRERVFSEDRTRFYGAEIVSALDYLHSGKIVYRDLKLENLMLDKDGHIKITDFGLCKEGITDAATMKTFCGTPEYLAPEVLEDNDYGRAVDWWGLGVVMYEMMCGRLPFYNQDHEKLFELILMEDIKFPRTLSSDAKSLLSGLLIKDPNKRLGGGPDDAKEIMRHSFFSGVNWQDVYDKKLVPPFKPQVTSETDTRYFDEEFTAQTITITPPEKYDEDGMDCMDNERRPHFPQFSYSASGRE

[12] = Microsomal stability in mouse liver microsomes assessed as compound remaining at 100 ug/ml in presence of NADPH measured at 1.5 hrs by LC/MS analysis; type: ADME, Microsome; settings: read-out: Stability
LNCaP = test: Antiproliferative activity against human LNCAP cells; type: functional, cell-based
[13] = biological target: RAC-beta serine/threonine-protein kinase (Homo sapiens, UniProt P31751); test: Inhibition of human Akt2 by mobile shift assay
[14] = Toxicity in ICR mouse assessed as reduction in specific volume of RBC at 40 mg/kg, ig administered once daily for 7 days; type: organism-based; settings: in vivo, po, 168 h
[15] = Half-life in ICR mouse at 20 mg/kg, po measured up to 48 hrs by LC-MS/MS analysis; type: ADME, organism-based; settings: in vivo
[16] = Toxicity in BALB/c nude mouse xenografted with human MM1S cells assessed as reduction in mouse survival at 10 mg/kg, po administered once daily for 22 days; type: organism-based; settings: in vivo, 528 h
[17] = biological target: T1, Serine/threonine-protein kinase Sgk1 (Homo sapiens, UniProt O00141); test: Inhibition of human SGK by mobility shift assay
T1 sequence (O00141 whole entry): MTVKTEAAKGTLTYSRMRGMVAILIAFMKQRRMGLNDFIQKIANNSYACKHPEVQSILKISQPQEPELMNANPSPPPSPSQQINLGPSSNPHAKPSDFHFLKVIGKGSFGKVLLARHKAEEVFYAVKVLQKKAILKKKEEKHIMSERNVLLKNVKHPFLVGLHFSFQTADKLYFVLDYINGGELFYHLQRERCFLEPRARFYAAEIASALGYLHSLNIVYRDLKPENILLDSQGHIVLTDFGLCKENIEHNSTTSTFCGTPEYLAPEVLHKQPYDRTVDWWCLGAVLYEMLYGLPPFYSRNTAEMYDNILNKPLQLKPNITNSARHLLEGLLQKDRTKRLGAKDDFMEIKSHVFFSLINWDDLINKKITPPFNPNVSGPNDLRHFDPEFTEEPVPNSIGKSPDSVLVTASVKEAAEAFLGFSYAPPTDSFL

[18] = Toxicity in ICR mouse assessed as reduction in creatinine level at 40 mg/kg, ig administered once daily for 7 days; type: organism-based; settings: in vivo, po, 168 h
[19] = biological target: Serine/threonine-protein kinase AKT (Homo sapiens, UniProt P31751+Q9Y243+P31749); test: Inhibition of Akt in human LNCaP cells assessed as reduction in PRAS40 phosphorylation at T246 residue after 1 hr by ELISA; type: cell-based
MM1.S = test: Antitumor activity against human MM1S cells xenografted in BALB/c nude mouse assessed as tumor growth inhibition at 10 mg/kg, po administered once daily for 22 days relative to control; type: functional; settings: 528 h, read-out: TGI
[20] = biological target: Rho-associated protein kinase 1 (Homo sapiens, UniProt Q13464); test: Inhibition of human ROCK1 by mobile shift assay
Rho-associated protein kinase 1, sequence (Q13464 whole entry): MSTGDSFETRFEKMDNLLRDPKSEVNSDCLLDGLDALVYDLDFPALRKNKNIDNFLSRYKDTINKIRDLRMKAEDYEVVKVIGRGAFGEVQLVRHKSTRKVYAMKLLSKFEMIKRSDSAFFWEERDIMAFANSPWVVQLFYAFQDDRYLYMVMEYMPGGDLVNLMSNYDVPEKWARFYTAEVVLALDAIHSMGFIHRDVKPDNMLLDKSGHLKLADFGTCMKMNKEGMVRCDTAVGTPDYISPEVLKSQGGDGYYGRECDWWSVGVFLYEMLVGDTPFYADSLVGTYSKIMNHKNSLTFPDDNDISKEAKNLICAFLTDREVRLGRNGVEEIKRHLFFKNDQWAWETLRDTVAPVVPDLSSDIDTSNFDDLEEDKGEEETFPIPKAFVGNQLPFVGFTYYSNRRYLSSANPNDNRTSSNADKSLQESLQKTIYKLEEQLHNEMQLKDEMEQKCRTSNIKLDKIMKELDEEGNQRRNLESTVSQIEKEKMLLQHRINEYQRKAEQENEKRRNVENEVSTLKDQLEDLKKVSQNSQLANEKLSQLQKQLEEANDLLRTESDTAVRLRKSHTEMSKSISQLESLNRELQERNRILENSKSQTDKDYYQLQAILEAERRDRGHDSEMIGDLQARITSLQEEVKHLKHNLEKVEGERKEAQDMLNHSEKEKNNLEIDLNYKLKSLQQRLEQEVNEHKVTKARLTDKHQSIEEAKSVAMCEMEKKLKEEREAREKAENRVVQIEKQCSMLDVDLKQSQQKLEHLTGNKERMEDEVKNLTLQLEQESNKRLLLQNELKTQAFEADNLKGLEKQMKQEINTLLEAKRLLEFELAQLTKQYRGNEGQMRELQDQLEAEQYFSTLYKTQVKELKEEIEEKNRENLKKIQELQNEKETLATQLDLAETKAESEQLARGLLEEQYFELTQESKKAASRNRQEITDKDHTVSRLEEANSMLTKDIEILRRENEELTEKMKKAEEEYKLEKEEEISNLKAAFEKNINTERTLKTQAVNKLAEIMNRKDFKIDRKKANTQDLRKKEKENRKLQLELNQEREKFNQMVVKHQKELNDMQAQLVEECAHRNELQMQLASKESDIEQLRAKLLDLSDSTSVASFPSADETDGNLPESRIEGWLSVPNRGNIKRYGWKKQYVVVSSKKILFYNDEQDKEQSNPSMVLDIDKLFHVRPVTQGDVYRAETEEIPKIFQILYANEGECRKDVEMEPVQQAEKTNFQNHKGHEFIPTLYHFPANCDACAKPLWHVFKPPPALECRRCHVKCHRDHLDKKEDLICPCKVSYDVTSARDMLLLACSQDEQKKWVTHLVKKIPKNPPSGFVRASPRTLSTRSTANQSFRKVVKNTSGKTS

[21] = Toxicity in ICR mouse assessed as reduction in red blood cells at 40 mg/kg, ig administered once daily for 7 days; type: organism-based; settings: in vivo, po, 168 h
[22] = Toxicity in ICR mouse assessed as induction of heavy gastrointestinal hemorrhage by autopsy analysis; settings: in vivo
[23] = AUC (0 to infinity) in ICR mouse at 20 mg/kg, po measured up to 48 hrs by LC-MS/MS analysis; type: ADME, organism-based; set-up: dose 20 mg/kg, time infinity, route oral; settings: in vivo
[24] = Toxicity in ICR mouse assessed as reduction in hemoglobin level at 40 mg/kg, ig administered once daily for 7 days; type: organism-based; settings: in vivo, po, 168 h
[25] = Microsomal stability in dog liver microsomes assessed as compound remaining at 100 ug/ml in presence of NADPH measured at 1.5 hrs by LC/MS analysis; type: ADME, Canis lupus familiaris, Microsome; settings: read-out: Stability

SMILES: Cn1ncc(Cl)c1-c1cc(C(=O)N[C@@H]2CNCC[C@H]2c2ccc(F)c(F)c2)oc1Cl.O=C(O)C(O)C(O)C(=O)O
- bioavailability [1]: 97.9%
- remaining at 1.5 h, 100 ug/ml [2]: 69.7%
- IC50 (HCT-116): 210 nM
- Activity [3]: <= 25%
- IC50 [4]: 7 nM
- remaining at 1.5 h, 100 ug/ml [5]: 39.9%
- IC50 (OVCAR-8): 40 nM
- IC50 [6]: 48 nM
- IC50 (Protein kinase C (PKC)): 156 nM
- inhibition at 3 µM (hERG (KCNH2)): 62.1%
- IC50 [7]: 3 nM
- MTD at 528 h [8]: < 10 mg/kg
- Activity [9]: Toxic
- Cmax [10]: 398 ng/mL
- IC50 [11]: 0.1 nM
- remaining at 1.5 h, 100 ug/ml [12]: 89.9%
- IC50 (LNCaP): 60 nM
- IC50 [13]: < 0.64 nM
- Activity [14]: Toxic
- half-life [15]: 10.7 h
- Activity [16]: Toxic
- IC50 [17]: 59 nM
- Activity [18]: Toxic
- IC50 [19]: 21.1 nM
- inhibition in vivo at 10 mg/kg (MM1.S): 87.5%
- IC50 [20]: 20 nM
- Activity [21]: Toxic
- Activity [22]: Toxic
- AUC [23]: 6670 ng·h/mL
- Activity [24]: Toxic
- remaining at 1.5 h, 100 ug/ml [25]: 86.9%

Source: ChEMBL document CHEMBL4406807, “Discovery of 3,4,6-Trisubstituted Piperidine Derivatives as Orally Active, Low hERG Blocking Akt Inhibitors via Conformational Restriction and Structure-Based Design” (J Med Chem, 2019)
